EP0377642B1, “HERBICIDES FOR WEED CONTROL IN RICE” (E.I. DU PONT DE NEMOURS AND COMPANY, priority 1987, dated 1989)

What was measured:
Assay type in all cases: in vivo
[1] = system: Cyperus difformis; assay: Herbicidal efficacy alone and with 2,4-D in Malaysia, applied 30 days after seeding (Table 8); conditions: 22 days after treatment
Text: (§1) Methyl 2-[[[[(4-methoxy-6-methyl-1,3,5-triazin-2-yl)amino]carbonyl]amino]sulfonyl]benzoate (Compound 1) and mixtures thereof with other compounds were applied as a spray (using a hand sprayer) to rice (either transplanted or direct seeded) in several rice growing areas in Southeast Asia and in the U.S. Tables 1-28 contain the results of these tests and clearly exemplify the utility of this invention. The details of each application are included in the appropriate table. [drawing 2]

[2] = system: FIMBRISTYLIS MILIACEA; assay: as above; conditions: 22 days after treatment
Text: as §1

[3] = system: Marsilea crenata; assay: as above; conditions: 22 days after treatment
Text: as §1

[4] = system: Monochoria vaginalis; assay: as above; conditions: 22 days after treatment
Text: as §1

[5] = system: Scirpus grossus; assay: as above; conditions: 22 days after treatment
Text: as §1

[6] = system: Sphenoclea zeylanica; assay: as above; conditions: 22 days after treatment
Text: as §1

[7] = system: Cyperus difformis; assay: Herbicidal efficacy with Bensulfuron methyl and 2,4-D in Thailand (Table 18); conditions: 1500 GAI/HA; 13 days after treatment
Text: as §1

[8] = system: Ludwigia linifolia; assay: as above; conditions: 1500 GAI/HA; 13 days after treatment
Text: as §1

[9] = system: Sphenoclea zeylanica; assay: as above; conditions: 1500 GAI/HA; 13 days after treatment
Text: as §1

[10] = system: rice; assay: as above; conditions: 1500 GAI/HA; 13 days after treatment
Text: as §1

[11] = system: Cuperus difformis; assay: Herbicidal efficacy with Bensulfuron methyl and 2,4-D in Thailand (Table 19); conditions: 1500 GAI/HA; 13 days after treatment
Text: as §1

[12] = system: Ludwigia linifolia; assay: as above; conditions: 1500 GAI/HA; 13 days after treatment
Text: as §1

[13] = system: Sphenoclea zeylanica; assay: as above; conditions: 1500 GAI/HA; 13 days after treatment
Text: as §1

[14] = system: rice; assay: as above; conditions: 1500 GAI/HA; 13 days after treatment
Text: as §1

[15] = system: Cuperus iria; assay: Herbicidal efficacy with Bensulfuron methyl and 2,4-D in Thailand (Table 20); conditions: 1500 GAI/HA; 14 days after treatment
Text: as §1

[16] = system: FIMBRISTYLIS MILIACEA; assay: as above; conditions: 1500 GAI/HA; 14 days after treatment
Text: as §1

[17] = system: Ludwigia linifolia; assay: as above; conditions: 1500 GAI/HA; 14 days after treatment
Text: as §1

[18] = system: Sphenoclea zeylanica; assay: as above; conditions: 1500 GAI/HA; 14 days after treatment
Text: as §1

[19] = system: rice; assay: as above; conditions: 1500 GAI/HA; 14 days after treatment
Text: as §1

[20] = system: FIMBRISTYLIS MILIACEA; assay: Herbicidal efficacy with 2,4-D in Malaysia (Table 21); conditions: 1000 GAI/HA; 42 days after treatment
Text: as §1

[21] = system: Ludwigia adscendens; assay: as above; conditions: 1000 GAI/HA; 42 days after treatment
Text: as §1

[22] = system: Masilea crenata; assay: as above; conditions: 1000 GAI/HA; 42 days after treatment
Text: as §1

[23] = system: Monochoria vaginalis; assay: as above; conditions: 1000 GAI/HA; 42 days after treatment
Text: as §1

[24] = system: Saggittaria guayanensis; assay: as above; conditions: 1000 GAI/HA; 42 days after treatment
Text: as §1

[25] = system: Scirpus spp.; assay: as above; conditions: 1000 GAI/HA; 42 days after treatment
Text: as §1

O=C(O)COc1ccc(Cl)cc1Cl [2,4-D, 2,4-dichlorophenoxyacetic acid]
% CONTROL CD ([1]; 500 GAI/HA): 95% | % CONTROL CD ([1]; 1000 GAI/HA): 100% | % CONTROL FM ([2]; 500 GAI/HA): 100% | % CONTROL FM ([2]; 1000 GAI/HA): 100% | % CONTROL MC ([3]; 500 GAI/HA): 0% | % CONTROL MC ([3]; 1000 GAI/HA): 0% | % CONTROL MV ([4]; 500 GAI/HA): 90% | % CONTROL MV ([4]; 1000 GAI/HA): 100% | % CONTROL SG ([5]; 500 GAI/HA): 50% | % CONTROL SG ([5]; 1000 GAI/HA): 75% | % CONTROL SZ ([6]; 500 GAI/HA): 100% | % CONTROL SZ ([6]; 1000 GAI/HA): 100% | % CONTROL OR INJURY CD [7]: 100% | % CONTROL OR INJURY LL [8]: 100% | % CONTROL OR INJURY SZ [9]: 90% | % CONTROL OR INJURY RICE [10]: 0% | % CONTROL OR INJURY CD [11]: 100% | % CONTROL OR INJURY LL [12]: 97% | % CONTROL OR INJURY SZ [13]: 86% | % CONTROL OR INJURY RICE [14]: 0% | % CONTROL OR INJURY CI [15]: 100% | % CONTROL OR INJURY FM [16]: 100% | % CONTROL OR INJURY LL [17]: 100% | % CONTROL OR INJURY SZ [18]: 33.3% | % CONTROL OR INJURY RICE [19]: 0% | % CONTROL OR INJURY FM [20]: 73% | % CONTROL OR INJURY LA [21]: 93% | % CONTROL OR INJURY MC [22]: 56% | % CONTROL OR INJURY MV [23]: 100% | % CONTROL OR INJURY SG [24]: 74% | % CONTROL OR INJURY SS [25]: 55%
